Among the data in patent US10533010B2, “Substituted indole Mcl-1 inhibitors” (Vanderbilt University, priority 2014, dated 2020) are Ki values, retold here.

In this experiment the target is recombinant Mcl-1 (residues 172-327) (Homo sapiens (Human), UniProt Q07820). As to the kind of experiment: Fluorescence polarization anisotropy competition assay (FITC-Bak or FITC-Bim BH3 peptide) with Mcl-1. The format is binding. To be noted: Table 2; Ki bins given in nM; FITC-Bak or FITC-Bim peptide competition; Ki converted from IC50; read-out: Ki for Inhibition of Mcl-1.
Sequence of recombinant Mcl-1 (residues 172-327) (Q07820 172-327): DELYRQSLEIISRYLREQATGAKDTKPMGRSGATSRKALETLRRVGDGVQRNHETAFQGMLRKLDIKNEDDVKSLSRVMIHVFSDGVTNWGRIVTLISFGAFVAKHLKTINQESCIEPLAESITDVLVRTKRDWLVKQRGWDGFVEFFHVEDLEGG

Some results are limits rather than exact numbers.

The term Ki denotes a dissociation constant, usually derived from enzyme kinetics or from competition with a known ligand. On to `Cc1cc(OCCCc2c(C(=O)NC[C@H]3CC[C@H](C(=O)O)CC3)[nH]c3c(-c4c(C)nn(C)c4C)c(Cl)ccc23)cc(C)c1Cl` [I-324, (1r,4r)-4-((6-chloro-3-(3-(4-chloro-3,5-dimethylphenoxy)propyl)-7-(1,3,5-trimethyl-1H-pyrazol-4-yl)-1H-indole-2-carboxamido)methyl)cyclohexane-1-carboxylic acid], for which the Ki is below 50 nM.

As for `Cc1cc(OCCCc2c(C(=O)Nc3cc(C(=O)O)cc(N4CCOCC4)c3)[nH]c3c(-c4c(C)nn(C)c4C)c(Cl)ccc23)cc(C)c1Cl` [I-208, 3-(6-chloro-3-(3-(4-chloro-3,5-dimethylphenoxy)propyl)-7-(1,3,5-trimethyl-1H-pyrazol-4-yl)-1H-indole-2-carboxamido)-5-morpholinobenzoic acid], the Ki was below 50 nM.

In the case of `Cc1cc(OCCCc2c(C(=O)NCC(=O)NS(=O)(=O)c3ccccc3)[nH]c3ccccc23)cc(C)c1Cl` [I-5, 3-(3-(4-chloro-3,5-dimethylphenoxy)propyl)-N-(2-oxo-2-(phenylsulfonamido)ethyl)-1H-indole-2-carboxamide], the Ki lay within 101 to 299 nM.

For `Cc1cc(OCCCc2c(C(=O)N3CCN(c4ccc(C(=O)O)cc4)CC3)n(Cc3ccccn3)c3c(-c4c(C)nn(C)c4C)c(Cl)ccc23)cc(C)c1Cl` [I-341, 4-(4-(6-chloro-3-(3-(4-chloro-3,5-dimethylphenoxy)propyl)-1-(pyridin-2-ylmethyl)-7-(1,3,5-trimethyl-1H-pyrazol-4-yl)-1H-indole-2-carbonyl)piperazin-1-yl)benzoic acid], the Ki was below 50 nM.

Regarding `Cc1cc(OCCCc2c(C(=O)NCc3cc(C(=O)O)c(C)o3)[nH]c3c(-c4c(C)nn(C)c4C)cccc23)cc(C)c1Cl` [I-273, 5-((3-(3-(4-chloro-3,5-dimethylphenoxy)propyl)-7-(1,3,5-trimethyl-1H-pyrazol-4-yl)-1H-indole-2-carboxamido)methyl)-2-methylfuran-3-carboxylic acid], the Ki was below 50 nM.

For `Cc1cc(OCCCc2c3n(c4c(-c5c(C)nn(C)c5C)c(Cl)ccc24)CCCN(c2cccc(C(=O)O)c2C)C3=O)cc(C)c1Cl` [I-96, 3-(8-chloro-11-(3-(4-chloro-3,5-dimethylphenoxy)propyl)-1-oxo-7-(1,3,5-trimethyl-1H-pyrazol-4-yl)-4,5-dihydro-1H-[1,4]diazepino[1,2-a]indol-2(3H)-yl)-2-methylbenzoic acid], the Ki was below 50 nM.

Consider `Cc1cc(OCCCc2c(C(=O)Nc3ccc(CC(=O)O)cc3)[nH]c3c(-c4c(C)nn(C)c4C)cccc23)cc(C)c1Cl` [I-205, 2-(4-(3-(3-(4-chloro-3,5-dimethylphenoxy)propyl)-7-(1,3,5-trimethyl-1H-pyrazol-4-yl)-1H-indole-2-carboxamido)phenyl)acetic acid], for which the Ki is below 50 nM.

With `Cc1cc(OCCCc2c3n(c4c(-c5c(C)nn(C)c5C)c(Cl)ccc24)[C@@H](C)CN(c2cc(C(=O)O)c4ccn(C)c4c2)C3=O)cc(C)c1Cl` [I-169, (S)-6-(7-chloro-10-(3-(4-chloro-3,5-dimethylphenoxy)propyl)-4-methyl-1-oxo-6-(1,3,5-trimethyl-1H-pyrazol-4-yl)-3,4-dihydropyrazino[1,2-a]indol-2(1H)-yl)-1-methyl-1H-indole-4-carboxylic acid], the inhibitory constant (Ki) was below 50 nM.

Regarding `Cc1cc(OCCCc2c(C(=O)NCCS(=O)(=O)NC(=O)Cc3ccc(Br)cc3)[nH]c3ccccc23)cc(C)c1Cl` [I-53, N-(2-(N-(2-(4-bromophenyl)acetyl)sulfamoyl)ethyl)-3-(3-(4-chloro-3,5-dimethylphenoxy)propyl)-1H-indole-2-carboxamide], the Ki lay within 301 to 500 nM.

As for `Cc1cc(OCCCc2c(C(=O)NCCC(=O)NS(=O)(=O)c3ccccc3C#N)[nH]c3ccccc23)cc(C)c1Cl` [I-18, 3-(3-(4-chloro-3,5-dimethylphenoxy)propyl)-N-(3-((2-cyanophenyl)sulfonamido)-3-oxopropyl)-1H-indole-2-carboxamide], the Ki lay within 301 to 500 nM.

As to `Cc1cc(OCCCc2c3n(c4c(-c5c(C)nn(C)c5C)c(Cl)ccc24)CCN(c2cncc(C(=O)O)c2)C3=O)cc(C)c1Cl` [I-198, 5-(7-chloro-10-(3-(4-chloro-3,5-dimethylphenoxy)propyl)-1-oxo-6-(1,3,5-trimethyl-1H-pyrazol-4-yl)-3,4-dihydropyrazino[1,2-a]indol-2(1H)-yl)nicotinic acid], the Ki was below 50 nM.

For `Cc1cc(OCCCc2c3n(c4c(-c5c(C)nn(C)c5C)c(Cl)ccc24)CCCN(c2cc(CN4CCN(C)CC4)cc(C(=O)O)c2)C3=O)cc(C)c1Cl` [I-228, 3-(8-chloro-11-(3-(4-chloro-3,5-dimethylphenoxy)propyl)-1-oxo-7-(1,3,5-trimethyl-1H-pyrazol-4-yl)-4,5-dihydro-1H-[1,4]diazepino[1,2-a]indol-2(3H)-yl)-5-((4-methylpiperazin-1-yl)methyl)benzoic acid], the Ki was below 50 nM.

As to `Cc1cc(OCCCc2c3n(c4c(-c5c(C)nn(C)c5C)c(Cl)ccc24)CCCN(c2cc(Cn4ccnc4)cc(C(=O)O)c2)C3=O)cc(C)c1Cl` [I-229, 3-((1H-imidazol-1-yl)methyl)-5-(8-chloro-11-(3-(4-chloro-3,5-dimethylphenoxy)propyl)-1-oxo-7-(1,3,5-trimethyl-1H-pyrazol-4-yl)-4,5-dihydro-1H-[1,4]diazepino[1,2-a]indol-2(3H)-yl)benzoic acid], the Ki was below 50 nM.

With `Cc1cc(OCCCc2c(C(=O)Nc3cccc(C(=O)O)c3)[nH]c3c(-c4cccnc4C)cccc23)cc(C)c1Cl` [I-36, 3-(3-(3-(4-chloro-3,5-dimethylphenoxy)propyl)-7-(2-methylpyridin-3-yl)-1H-indole-2-carboxamido)benzoic acid], the Ki was below 50 nM.

With `Cc1cc(OCCCc2c3n(c4c(-c5c(C)nn(C)c5C)c(Cl)ccc24)CCCN(c2scnc2C(=O)O)C3=O)cc(C)c1Cl` [I-350, 5-(8-chloro-11-(3-(4-chloro-3,5-dimethylphenoxy)propyl)-1-oxo-7-(1,3,5-trimethyl-1H-pyrazol-4-yl)-4,5-dihydro-1H-[1,4]diazepino[1,2-a]indol-2(3H)-yl)thiazole-4-carboxylic acid], the inhibitory constant (Ki) was below 50 nM.

With `Cc1cc(OCCCc2c(C(=O)NCc3ccc(N4CCCC4)c(C(=O)O)c3)[nH]c3c(-c4c(C)nn(C)c4C)cccc23)cc(C)c1Cl` [I-76, 5-((3-(3-(4-chloro-3,5-dimethylphenoxy)propyl)-7-(1,3,5-trimethyl-1H-pyrazol-4-yl)-1H-indole-2-carboxamido)methyl)-2-(pyrrolidin-1-yl)benzoic acid], the Ki was in the range of 51 to 100 nM.

Take `Cc1cc(OCCCc2c(C(=O)NCc3cccc(C(=O)NS(=O)(=O)c4ccc([N+](=O)[O-])cc4)c3)[nH]c3c(-c4c(C)n[nH]c4C)cccc23)cc(C)c1Cl` [I-27, 3-(3-(4-chloro-3,5-dimethylphenoxy)propyl)-7-(3,5-dimethyl-1H-pyrazol-4-yl)-N-(3-(((4-nitrophenyl)sulfonyl)carbamoyl)benzyl)-1H-indole-2-carboxamide]: the Ki is below 50 nM.

Take `Cc1cc(OCCCc2c3n(c4c(-c5c(C)nn(C)c5C)c(Cl)ccc24)CCCN(Cc2cc(C(=O)O)cc(-c4ccc(OCc5ccccc5C(F)(F)F)cc4)c2)C3=O)cc(C)c1Cl` [I-308, 5-((8-chloro-1-(3-(4-chloro-3,5-dimethylphenoxy)propyl)-1-oxo-7-(1,3,5-trimethyl-1H-pyrazol-4-yl)-4,5-dihydro-1H-[1,4]diazepino[1,2-a]indol-2(3H)-yl)methyl)-4′-((2-(trifluoromethyl)benzyl)oxy)-[1,1′-biphenyl]-3-carboxylic acid]: the Ki is 51 to 100 nM.

As for `Cc1cc(OCCCc2c(C(=O)Nc3cncc(C(=O)O)c3)[nH]c3c(-c4c(C)nn(C)c4C)cccc23)cc(C)c1Cl` [I-186, 5-(3-(3-(4-chloro-3,5-dimethylphenoxy)propyl)-7-(1,3,5-trimethyl-1H-pyrazol-4-yl)-1H-indole-2-carboxamido)nicotinic acid], the Ki is below 50 nM.

In the case of `Cc1cc(OCCCc2c(C(=O)N[C@H]3CCN(C(=O)C(=O)O)C3)[nH]c3c(-c4c(C)nn(C)c4C)c(Cl)ccc23)cc(C)c1Cl` [I-325, (S)-2-(3-(6-chloro-3-(3-(4-chloro-3,5-dimethylphenoxy)propyl)-7-(1,3,5-trimethyl-1H-pyrazol-4-yl)-1H-indole-2-carboxamido)pyrrolidin-1-yl)-2-oxoacetic acid], the Ki is below 50 nM.

`Cc1cc(OCCCc2c3n(c4c(-c5c(C)nn(C)c5C)cccc24)CCCN(Cc2cc(C(=O)O)n(C)c2)C3=O)cc(C)c1Cl` [I-79, 4-((11-(3-(4-chloro-3,5-dimethylphenoxy)propyl)-1-oxo-7-(1,3,5-trimethyl-1H-pyrazol-4-yl)-4,5-dihydro-1H-[1,4]diazepino[1,2-a]indol-2(3H)-yl)methyl)-1-methyl-1H-pyrrole-2-carboxylic acid]: the Ki lay in the range of 51 to 100 nM.

Turning to `Cc1cc(OCCCc2c(C(=O)NCCC(=O)NS(=O)(=O)c3cccnc3)[nH]c3ccccc23)cc(C)c1Cl` [I-15, 3-(3-(4-chloro-3,5-dimethylphenoxy)propyl)-N-(3-oxo-3-(pyridine-3-sulfonamido)propyl)-1H-indole-2-carboxamide], the Ki lay in the range of 101 to 299 nM.

For the compound `Cc1cc(OCCCc2c3n(c4c(-c5c(C)nn(C)c5C)c(Cl)ccc24)CCCN(C2SC(=O)NC2C(=O)O)C3=O)cc(C)c1Cl` (stereo not drawn) [I-346, 5-(8-chloro-11-(3-(4-chloro-3,5-dimethylphenoxy)propyl)-1-oxo-7-(1,3,5-trimethyl-1H-pyrazol-4-yl)-4,5-dihydro-1H-[1,4]diazepino[1,2-a]indol-2(3H)-yl)-2-oxothiazolidine-4-carboxylic acid], the Ki is below 50 nM.

For `Cc1cc(OCCCc2c3n(c4c(-c5c(C)nn(C)c5C)c(Cl)ccc24)CCCN(Cc2cc(C(=O)O)c(C)o2)C3=O)cc(C)c1Cl` [I-347, 5-((8-chloro-1-(3-(4-chloro-3,5-dimethylphenoxy)propyl)-1-oxo-7-(1,3,5-trimethyl-1H-pyrazol-4-yl)-4,5-dihydro-1H-[1,4]diazepino[1,2-a]indol-2(3H)-yl)methyl)-2-methylfuran-3-carboxylic acid], the Ki is below 50 nM.
